In ChEMBL document CHEMBL1649565, “Besifloxacin, a novel fluoroquinolone, has broad-spectrum in vitro activity against aerobic and anaerobic bacteria” (Antimicrob Agents Chemother, 2009):
≈ marks a conversion by molar mass, not a printed value. Calls of active or inactive are those of the source. No cut-off for these calls is given here.

Key:
[1] = Drug concentration in human tears at 0.6% administered topically as single dose measured after 10 mins; assay type: ADME; settings: topical or ocular, read-out: Drug uptake
[2] = Drug concentration in human tears at 0.6% administered topically as single dose measured after 24 hrs; assay type: ADME; settings: topical or ocular, read-out: Drug uptake
Enterococcus faecalis = test: Antibacterial activity against vancomycin- resistant Enterococcus faecalis by CLSI M100-S18 method; assay type: functional
Staphylococcus aureus = test: Antibacterial activity against ciprofloxacin-susceptible and methicillin-resistant Staphylococcus aureus by CLSI M100-S18 method; assay type: functional
[3] = system: Staphylococcus saprophyticus; test: Antibacterial activity against Staphylococcus saprophyticus by CLSI M100-S18 method; assay type: functional
[4] = Antibacterial activity against Lancefield Streptococcus sp. 'group C' by CLSI M100-S18 method; assay type: functional
Streptococcus pneumoniae = test: Antibacterial activity against non-levofloxacin susceptible Streptococcus pneumoniae by CLSI M100-S18 method; assay type: functional
Streptococcus anginosus [5] = test: Antibacterial activity against Streptococcus anginosus by CLSI M100-S18 method; assay type: functional
[6] = system: Streptococcus constellatus; test: Antibacterial activity against Streptococcus constellatus by CLSI M100-S18 method; assay type: functional
[7] = system: Streptococcus intermedius; test: Antibacterial activity against Streptococcus intermedius by CLSI M100-S18 method; assay type: functional
Streptococcus mitis [8] = test: Antibacterial activity against Streptococcus mitis by CLSI M100-S18 method; assay type: functional
Streptococcus salivarius [9] = test: Antibacterial activity against Streptococcus salivarius by CLSI M100-S18 method; assay type: functional
Streptococcus sanguinis [10] = test: Antibacterial activity against Streptococcus sanguinis by CLSI M100-S18 method; assay type: functional
Acinetobacter lwoffii = test: Antibacterial activity against Acinetobacter lwoffii by CLSI M7-A7 method; assay type: functional
Klebsiella aerogenes = test: Antibacterial activity against Enterobacter aerogenes by CLSI M7-A7 method; assay type: functional
Neisseria meningitidis = test: Antibacterial activity against Neisseria meningitidis by CLSI M7-A7 method; assay type: functional
Proteus vulgaris [11] = test: Antibacterial activity against Proteus vulgaris by CLSI M7-A7 method; assay type: functional
Pseudomonas aeruginosa = test: Antibacterial activity against non-ciprofloxacin-susceptible Pseudomonas aeruginosa by CLSI M7-A7 method; assay type: functional
[12] = system: Stenotrophomonas maltophilia; test: Antibacterial activity against non-levofloxacin susceptible Stenotrophomonas maltophilia by CLSI M7-A7 method; assay type: functional
Cutibacterium acnes = test: Antibacterial activity against Propionibacterium acnes assessed as percent susceptible isolates by CLSI M11-A7 method; assay type: functional
[13] = system: Staphylococcus epidermidis; test: Antibacterial activity against non-ciprofloxacin-susceptible and methicillin-susceptible Staphylococcus epidermidis assessed as percent susceptible isolates by CLSI M100-S18 method; assay type: functional
Staphylococcus hominis = test: Antibacterial activity against Staphylococcus hominis assessed as percent susceptible isolates by CLSI M100-S18 method; assay type: functional
Streptococcus anginosus [14] = test: Antibacterial activity against Streptococcus anginosus assessed as percent susceptible isolates by CLSI M100-S18 method; assay type: functional
Streptococcus equinus = test: Antibacterial activity against Streptococcus bovis assessed as percent susceptible isolates by CLSI M100-S18 method; assay type: functional
[15] = system: Streptococcus constellatus; test: Antibacterial activity against Streptococcus constellatus assessed as percent susceptible isolates by CLSI M100-S18 method; assay type: functional
[16] = system: Streptococcus intermedius; test: Antibacterial activity against Streptococcus intermedius assessed as percent susceptible isolates by CLSI M100-S18 method; assay type: functional
Streptococcus mitis [17] = test: Antibacterial activity against Streptococcus mitis assessed as percent susceptible isolates by CLSI M100-S18 method; assay type: functional
Streptococcus oralis = test: Antibacterial activity against Streptococcus oralis assessed as percent susceptible isolates by CLSI M100-S18 method; assay type: functional
Streptococcus salivarius [18] = test: Antibacterial activity against Streptococcus salivarius assessed as percent susceptible isolates by CLSI M100-S18 method; assay type: functional
Streptococcus sanguinis [19] = test: Antibacterial activity against Streptococcus sanguinis assessed as percent susceptible isolates by CLSI M100-S18 method; assay type: functional
Haemophilus influenzae = test: Antibacterial activity against non-ciprofloxacin-susceptible Haemophilus influenzae assessed as percent susceptible isolates by CLSI M7-A7 method; assay type: functional
Klebsiella pneumoniae = test: Antibacterial activity against Klebsiella pneumoniae assessed as percent susceptible isolates by CLSI M7-A7 method; assay type: functional
Proteus vulgaris [20] = test: Antibacterial activity against Proteus vulgaris assessed as percent susceptible isolates by CLSI M7-A7 method; assay type: functional
Serratia marcescens = test: Antibacterial activity against levofloxacin susceptible Serratia marcescens assessed as percent susceptible isolates by CLSI M7-A7 method; assay type: functional
[21] = system: Staphylococcus epidermidis

Compound `N[C@@H]1CCCCN(c2c(F)cc3c(=O)c(C(=O)O)cn(C4CC4)c3c2Cl)C1` [BESIFLOXACIN] has a concentration at 10 min [1] of 610 µg/mL, a concentration at 24 h [2] of 1.6 µg/mL and an MIC50 (Enterococcus faecalis) of 0.12 µg/mL (≈ 0.305 µM). It also gave an MIC90 (Enterococcus faecalis) of 2 µg/mL (≈ 5.08 µM), an MIC (Staphylococcus aureus) of 0.015 µg/mL (≈ 0.0381 µM) and an MIC50 (Staphylococcus aureus) of 0.015 µg/mL (≈ 0.0381 µM). The MIC90 (Staphylococcus aureus) was 0.12 µg/mL (≈ 0.305 µM), the MIC50 [3] was 0.06 µg/mL (≈ 0.152 µM) and the MIC90 [3] was 0.12 µg/mL (≈ 0.305 µM). For the same compound, the MIC50 [4] was 0.03 µg/mL (≈ 0.0762 µM), the MIC90 [4] was 0.06 µg/mL (≈ 0.152 µM) and the MIC50 (Streptococcus pneumoniae) was 0.5 µg/mL (≈ 1.27 µM). For the same compound, the MIC90 (Streptococcus pneumoniae) was 0.5 µg/mL (≈ 1.27 µM), the MIC50 (Streptococcus anginosus [5]) was 0.06 µg/mL (≈ 0.152 µM) and the MIC90 (Streptococcus anginosus [5]) was 0.12 µg/mL (≈ 0.305 µM). For the same compound, the MIC50 [6] was 0.06 µg/mL (≈ 0.152 µM), the MIC90 [6] was 0.12 µg/mL (≈ 0.305 µM) and the MIC50 [7] was 0.06 µg/mL (≈ 0.152 µM). The MIC90 [7] was 0.12 µg/mL (≈ 0.305 µM), the MIC50 (Streptococcus mitis [8]) was 0.06 µg/mL (≈ 0.152 µM) and the MIC90 (Streptococcus mitis [8]) was 0.12 µg/mL (≈ 0.305 µM). The MIC50 (Streptococcus salivarius [9]) was 0.06 µg/mL (≈ 0.152 µM), the MIC90 (Streptococcus salivarius [9]) was 0.12 µg/mL (≈ 0.305 µM) and the MIC50 (Streptococcus sanguinis [10]) was 0.06 µg/mL (≈ 0.152 µM). It also gave an MIC90 (Streptococcus sanguinis [10]) of 0.12 µg/mL (≈ 0.305 µM), an MIC50 (Acinetobacter lwoffii) of 0.25 µg/mL (≈ 0.635 µM) and an MIC90 (Acinetobacter lwoffii) of 16 µg/mL (≈ 40.6 µM). For the same compound, the MIC50 (Klebsiella aerogenes) was 0.25 µg/mL (≈ 0.635 µM), the MIC90 (Klebsiella aerogenes) was 8 µg/mL (≈ 20.3 µM) and the MIC50 (Neisseria meningitidis) was 0.008 µg/mL (≈ 0.0203 µM). The MIC90 (Neisseria meningitidis) was 0.015 µg/mL (≈ 0.0381 µM), the MIC50 (Proteus vulgaris [11]) was 0.12 µg/mL (≈ 0.305 µM) and the MIC90 (Proteus vulgaris [11]) was 0.25 µg/mL (≈ 0.635 µM). The MIC50 (Pseudomonas aeruginosa) was 16 µg/mL (≈ 40.6 µM), the MIC90 (Pseudomonas aeruginosa) was 64 µg/mL (≈ 163 µM) and the MIC [12] was 0.25 µg/mL (≈ 0.635 µM). For the same compound, the Activity (Cutibacterium acnes) was “inactive”, the Activity [13] was “inactive” and the Activity (Staphylococcus hominis) was “inactive”. For the same compound, the Activity (Streptococcus anginosus [14]) was 0.06%, the Activity (Streptococcus equinus) was 0.06% and the Activity [15] was 0.06%. It also gave an Activity [16] of 0.06%, an Activity (Streptococcus mitis [17]) of 0.06% and an Activity (Streptococcus oralis) of 0.06%. The Activity (Streptococcus salivarius [18]) was 0.06%, the Activity (Streptococcus sanguinis [19]) was 0.06% and the Activity (Haemophilus influenzae) was “inactive”. The Activity (Klebsiella pneumoniae) was “inactive”, the Activity (Proteus vulgaris [20]) was “inactive” and the Activity (Serratia marcescens) was “inactive”. The MIC90 [21] was “inactive”.
